Consider 35 compounds from patent US20040006236A1, “Diaminopropionic acid derivatives” (priority 1999, published 2004).

Molecules are shown by their SMILES.

Assay [1] concerns the target T1, ICAM-1 binding to immobilized Mac-1 (Homo sapiens, UniProt P05107+P11215).
T1 construct: made in house; host or cells: transfected 293 cells (Mac-1)
In words: Mac-1/ICAM-1 screening assay (solid-phase ELISA). To be noted: read-out: Mac-1/ICAM-1 Protein-Protein Assay IC50. The procedure, abridged: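 Competitive solid-phase ELISA: membrane Mac-1 from transfected 293 cells coated at 3 μg/mL in 20 mM Hepes pH 7.2/0.14 M NaCl/1 mM MnCl2; compounds (0.12 nM-20 μM, 1:4 series) plus 5dICAM-Ig (40 μg/mL, added) 2 h at 37° C. Bound ICAM-Ig detected with HRP anti-human IgG Fc, TMB, A450; IC50 reported.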
(ELISA stands for enzyme-linked immunosorbent assay.)

In assay [2] the test system is cell-surface Mac-1 adhesion to immobilized fibrinogen (HL-60 cells). The experiment in a line: Mac-1/Fibrinogen cell-based screening assay. To be noted: Homo sapiens, HL-60, HL-60 cells; read-out: Mac-1/Fgn Cell based Assay IC50. Also on record: species or system human. A digest of the protocol:
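Wells coated with fibrinogen and blocked with PVP. Labeled HL-60 cells (2×10^6 cells/mL in RPMI/0.05% BSA/0.2 mM MnCl2) preincubated with DMSO-diluted compounds for 10 min at 37° C, then left to adhere 30 min at 37° C/5% CO2. Unbound cells washed off with TBS.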

T1 sequence (P05107 23-769, other chains not shown): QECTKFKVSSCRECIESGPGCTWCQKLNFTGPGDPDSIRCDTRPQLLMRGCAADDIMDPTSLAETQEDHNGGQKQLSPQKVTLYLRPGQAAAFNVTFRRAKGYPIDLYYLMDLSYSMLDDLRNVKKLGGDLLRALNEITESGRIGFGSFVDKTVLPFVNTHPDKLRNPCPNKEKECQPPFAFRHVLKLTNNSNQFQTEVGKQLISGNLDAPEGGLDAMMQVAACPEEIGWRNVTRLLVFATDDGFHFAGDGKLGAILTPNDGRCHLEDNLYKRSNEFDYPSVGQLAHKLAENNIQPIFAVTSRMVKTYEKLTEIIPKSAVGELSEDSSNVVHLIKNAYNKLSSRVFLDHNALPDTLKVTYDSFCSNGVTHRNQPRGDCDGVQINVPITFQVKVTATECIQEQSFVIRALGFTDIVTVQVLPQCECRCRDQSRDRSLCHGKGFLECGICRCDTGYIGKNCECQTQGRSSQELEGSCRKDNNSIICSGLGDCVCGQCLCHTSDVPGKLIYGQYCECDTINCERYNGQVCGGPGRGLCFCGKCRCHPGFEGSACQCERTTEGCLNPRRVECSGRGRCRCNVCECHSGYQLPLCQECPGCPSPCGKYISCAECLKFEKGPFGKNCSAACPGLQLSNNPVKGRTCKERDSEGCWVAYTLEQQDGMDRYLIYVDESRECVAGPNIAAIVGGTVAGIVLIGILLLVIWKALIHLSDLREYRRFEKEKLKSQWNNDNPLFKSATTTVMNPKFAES

For `O=C(CSc1ccncc1)NC[C@H](NC(=O)c1ccc(C(=O)NCc2cccc(O)c2)cc1Cl)C(=O)O` [Example 90], the IC50 worked out at 0.029 µM in assay [1] and 0.711 µM in assay [2].

In the case of `O=C(NCc1cccc(O)c1)c1ccc(C(=O)N[C@@H](CNC(=O)c2cc3ccccc3s2)C(=O)O)c(Cl)c1` [Example 175], the values for the IC50 in assay [1] and in assay [2] were 0.023 µM and 0.345 µM, respectively. `O=C(NCc1cccc(O)c1)c1ccc(C(=O)N[C@@H](CNC(=O)c2ccc3ncsc3c2)C(=O)O)c(Cl)c1` [Example 177]: the IC50 in assay [1] came out at 0.019 µM; in assay [2], 0.157 µM.

Take `O=C(NCc1cccc(O)c1)c1ccc(C(=O)N[C@@H](CNC(=O)c2cccc3ccccc23)C(=O)O)c(Cl)c1` [Example 178]: the IC50 in assay [1] turned out to be 0.019 µM; in assay [2], 0.125 µM. `O=C(NCc1cccc(O)c1)c1ccc(C(=O)N[C@@H](CNC(=O)c2ccc3ccccc3c2)C(=O)O)c(Cl)c1` [Example 179]: the IC50 in assay [1] amounted to 0.031 µM; in assay [2], 0.314 µM. Turning to `O=C(NCc1cccc(O)c1)c1ccc(C(=O)N[C@@H](CNC(=O)c2c3c(nc4ccccc24)CCCC3)C(=O)O)c(Cl)c1` [Example 190], the IC50 in assay [1] came to 0.417 µM; in assay [2], 4.85 µM. As to `O=C(NCc1cccc(O)c1)c1ccc(C(=O)N[C@@H](CNC(=O)[C@@H]2CCCN2)C(=O)O)c(Cl)c1` [Example 196], the IC50 in assay [1] turned out to be 0.016 µM; in assay [2], 0.063 µM.

As to `O=C(NCc1cccc(O)c1)c1ccc(C(=O)N[C@@H](CNC(=O)c2cc(F)cc(F)c2)C(=O)O)c(Cl)c1` [Example 252, N-[2-chloro-4-[[[(3-hydroxyphenyl)methyl]amino]carbonyl]benzoyl]-3-(3,5-difluorobenzoyl)amino-L-alanine], the IC50 in assay [1] was 0.0068 µM; in assay [2], 0.019 µM. As for `O=C(NCc1cccc(O)c1)c1ccc(C(=O)N[C@@H](CNC(=O)c2csnn2)C(=O)O)c(Cl)c1` [Example 254], the IC50 in assay [1] is 0.011 µM; in assay [2], 0.031 µM. On the same counts, the results for `O=C(NCc1cccc(O)c1)c1ccc(C(=O)N[C@@H](CNC(=O)c2ccno2)C(=O)O)c(Cl)c1` [Example 256] are 0.014 µM and 0.024 µM. For the compound `COc1cscc1C(=O)NC[C@H](NC(=O)c1ccc(C(=O)NCc2cccc(O)c2)cc1Cl)C(=O)O` [Example 257], the IC50 in assay [1] stood at 0.023 µM; in assay [2], 0.087 µM. On to `O=C(NCc1cccc(O)c1)c1ccc(C(=O)N[C@@H](CNC(=O)c2ccoc2)C(=O)O)c(Cl)c1` [Example 259, N-[2-chloro-4-[[[(3-hydroxyphenyl)methyl]amino]carbonyl]benzoyl]-3-(furan-3-carbonyl)amino-L-alanine], for which, in assay [2], the IC50 worked out at 0.063 µM. Turning to `NCCCC(=O)NC[C@H](NC(=O)c1ccc(C(=O)NCc2cccc(O)c2)cc1Cl)C(=O)O` [Example 261, N-[2-chloro-4-[[[(3-hydroxyphenyl)methyl]amino]-carbonyl]benzoyl]-3-(4-aminobutanoylamino)-L-alanine], the IC50 in assay [1] amounted to 0.011 µM; in assay [2], 0.046 µM.

Take `O=C(NCc1cccc(O)c1)c1ccc(C(=O)N[C@@H](CNC(=O)C2CCNCC2)C(=O)O)c(Cl)c1` [Example 262]: the figures for the IC50 in assay [1] and in assay [2] were 0.015 µM and 0.049 µM, respectively. On the same counts, the results for `O=C(NCc1cccc(O)c1)c1ccc(C(=O)N[C@@H](CNC(=O)c2ccccc2)C(=O)O)c(Cl)c1` [Example 302, 3-benzoylamino-N-[2-chloro-4-[[[(3-hydroxyphenyl)methyl]amino]carbonyl]benzoyl]-L-alanine] are 0.031 µM and 0.074 µM. In the case of `O=C(NCc1cccc(O)c1)c1ccc(C(=O)N[C@@H](CNC(=O)c2cccs2)C(=O)O)c(Cl)c1` [Example 303, N-[2-chloro-4-[[[(3-hydroxyphenyl)methyl]amino]carbonyl]benzoyl]-3-(thiophene-2-carbonyl)amino-L-alanine], the IC50 in assay [1] amounted to 0.0064 µM; in assay [2], 0.0087 µM. Consider `O=C(NCc1cccc2[nH]ccc12)c1ccc(C(=O)N[C@@H](CNC(=O)c2ccccc2)C(=O)O)c(Cl)c1` [Example 314, 3-(benzoylamino)-N-[2-chloro-4-[[(1H-indol-4-ylmethyl)amino]carbonyl]benzoyl]-L-alanine], for which the figures for the IC50 in assay [1] and in assay [2] were 0.04 µM and 0.162 µM, respectively. Consider `O=C(NC[C@H](NC(=O)c1ccc(-n2nnnc2NCc2cccc(O)c2)cc1Cl)C(=O)O)c1cccs1` [Example 321], for which, in assay [1], the IC50 was found to be 0.076 µM. For `O=C(NCc1cccc2[nH]cnc12)c1ccc(C(=O)N[C@@H](CNC(=O)c2cccs2)C(=O)O)c(Cl)c1` [Example 322], the IC50 in assay [1] turned out to be 0.051 µM.

Regarding `Cc1cc(C(=O)NCc2cccc(O)c2)ccc1C(=O)N[C@@H](CNC(=O)c1cccs1)C(=O)O` [Example 323], in assay [2], the IC50 amounted to 0.026 µM. On the same count and under the same terms, with `O=C(NCc1cccc2[nH]ncc12)c1ccc(C(=O)N[C@@H](CNC(=O)c2cccs2)C(=O)O)c(Cl)c1` [Example 327, N-[2-chloro-4-[[[(1H-indazol-4-yl)methyl]amino]carbonyl]benzoyl]-3-(thiophene-2-carbonyl)amino-L-alanine] the figure was 0.018 µM. As to `O=C(NCc1cccc2[nH]ccc12)c1ccc(C(=O)N[C@@H](CNC(=O)c2cccs2)C(=O)O)c(Br)c1` [Example 329], in assay [1], the IC50 came to 0.025 µM. As for `Cc1cc(C(=O)NCc2cccc(O)c2)cc(C)c1C(=O)N[C@@H](CNC(=O)c1cccs1)C(=O)O` [Example 330], in assay [2], the IC50 was 0.006 µM. In the case of `C[C@@H](NC(=O)c1ccc(C(=O)N[C@@H](CNC(=O)c2cccs2)C(=O)O)c(Br)c1)c1cccc2ccccc12` [Example 332], the IC50 in assay [1] worked out at 0.068 µM. `Cc1cc(C(=O)N[C@H](C)c2cccc3ccccc23)cc(C)c1C(=O)N[C@@H](CNC(=O)c1cccs1)C(=O)O` [Example 333]: the IC50 in assay [2] was 0.012 µM.

As to `Nc1cccc(CNC(=O)c2ccc(C(=O)N[C@@H](CNC(=O)c3cccs3)C(=O)O)c(Br)c2)c1` [Example 334, N-[4-[[[(3-aminophenyl)methyl]amino]carbonyl]-2-bromobenzoyl]-3-(thiophene-2-carbonyl)amino-L-alanine], the IC50 in assay [1] worked out at 0.071 µM. As to `Cc1cc(C(=O)NCc2cccc(O)c2)cc(C)c1C(=O)N[C@@H](CNC(=O)c1ccsc1)C(=O)O` [Example 336, N-[2,6-dimethyl-4-[[[(3-hydroxyphenyl)methyl]amino]carbonyl]benzoyl]-3-(thiophene-3-carbonyl)amino-L-alanine], the IC50 in assay [2] was found to be 0.0054 µM.

`Cc1cc(C(=O)NCc2cccc(O)c2)cc(C)c1C(=O)N[C@@H](CNC(=O)c1cc(F)cc(F)c1)C(=O)O` [Example 337, N-[2,6-dimethyl-4-[[[(3-hydroxyphenyl)methyl]amino]carbonyl]benzoyl]-3-(3,5-difluorobenzoylamino)-L-alanine]: the IC50 in assay [2] came to 0.012 µM. Regarding `Cc1cc(C(=O)NCc2cccc(O)c2)cc(Cl)c1C(=O)N[C@@H](CNC(=O)c1cccs1)C(=O)O` [Example 338, N-[2-chloro-4-[[[(3-hydroxyphenyl)methyl]amino]carbonyl]-6-methylbenzoyl]-3-[(thiophene-2-carbonyl)amino]-L-alanine], the IC50 in assay [1] was found to be 0.021 µM; in assay [2] it was 0.0022 µM.

For the compound `Cc1cc(C(=O)NCc2cccc(O)c2)cc(Cl)c1C(=O)N[C@@H](CNC(=O)c1ccsc1)C(=O)O` [Example 339, N-[2-chloro-4-[[[(3-hydroxyphenyl)methyl]amino]carbonyl]-6-methylbenzoyl]-3-[(thiophene-3-carbonyl)amino]-L-alanine], the IC50 in assay [2] came out at 0.0031 µM. As to `Cc1cc(C(=O)NCc2cccc(O)c2)cc(Cl)c1C(=O)N[C@@H](CNC(=O)c1cc(F)cc(F)c1)C(=O)O` [Example 340, N-[2-chloro-4-[[[(3-hydroxyphenyl)methyl]amino]carbonyl]-6-methylbenzoyl]-3-[(3,5-difluorobenzoyl)amino]-L-alanine], the IC50 in assay [2] worked out at 0.0062 µM. With `O=C(NCc1cccc(O)c1)c1cc(Cl)c(C(=O)N[C@@H](CNC(=O)c2cccs2)C(=O)O)c(Cl)c1` [Example 342, N-[2,6-dichloro-4-[[[(3-hydroxyphenyl)methyl]amino]carbonyl]benzoyl]-3-[(thiophene-2-carbonyl)amino]-L-alanine], in assay [2], the IC50 worked out at 0.001 µM. `O=C(NCc1cccc(O)c1)c1cc(Cl)c(C(=O)N[C@@H](CNC(=O)c2ccsc2)C(=O)O)c(Cl)c1` [Example 343, N-[2,6-dichloro-4-[[[(3-hydroxyphenyl)methyl]amino]carbonyl]benzoyl]-3-[(thiophene-3-carbonyl)amino]-L-alanine]: in assay [2], the IC50 was 0.0017 µM. Regarding `O=C(NCc1cccc(O)c1)c1cc(Cl)c(C(=O)N[C@@H](CNC(=O)c2cc(F)cc(F)c2)C(=O)O)c(Cl)c1` [Example 344, N-[2,6-dichloro-4-[[[(3-hydroxyphenyl)methyl]amino]carbonyl]benzoyl]-3-[(3,5-difluorobenzoyl)amino]-L-alanine], in assay [2], the IC50 worked out at 0.0048 µM. Turning to `O=C(NCc1cccc(O)c1)c1cc(Cl)c(C(=O)N[C@@H](CNC(=O)c2cc(O)cc(O)c2)C(=O)O)c(Cl)c1` [Example 345, N-[2,6-dichloro-4-[[[(3-hydroxyphenyl)methyl]amino]carbonyl]benzoyl]-3-(3,5-dihydroxybenzoylamino)-L-alanine], the IC50 in assay [2] was 0.0003 µM.
